# From patent US12268726B2, “Treatment of rhinosinusitis with P-glycoprotein inhibitors” (Massachusetts Eye and Ear Infirmary, priority 2012, dated 2025)
# Read-outs that look alike come from different tables or passages of the source.
# Legend:
# P-gp [1] = molecular target: T1, P-gp (Homo sapiens, UniProt P08183); settings: Varma et al., 2003; cited from earlier work
# [2] = test system: GM-CSF, IL-6, IL-8, IL-25 secretion in HSNECCs; assay: P-gp mediated cytokine secretion testing (ELISA) in HSNECCs; type: cell-based, human
# Description: (§1) For P-gp mediated cytokine secretion testing, HSNECC cells were exposed to 0.05 mg/mL LPS stimulation for 23 hours with or without concomitant P-gp inhibition using PSC 833 (8 μM), which was applied one hour prior to LPS stimulation. Control wells were considered those exposed to culture medium alone (BEGM). A 0.4% trypan blue (Sigma, St. Louis, MO) cell survival assay was used to ensure the stimulant and inhibitor exposures were not cytotoxic. In all wells less than 20% of cells were stained blue indicating greater than 80% survival. Following the LPS and PSC 833 exposures, the media was removed from each well. Cytokine concentrations for GM-CSF, IL-6, IL-8, and IL-25 in each well were determined by ELISA according to the manufacturer guidelines (GM-CSF, IL-6, IL-8 eBioscience, San Diego, CA; IL-25 Assay Biotechnology, San Francisco, CA). Cytokine concentrations were normalized to total media protein concentrations using a Pierce BCA Protein Assay Kit.
# PNECCs = assay: 0.4% trypan blue cell survival assay in PNECCs; type: cell-based, human
# Description: PNECC cells were exposed to 23 hours of stimulation with lipopolysaccharide (LPS, 0.05 mg/mL), which is a toll-like receptor 4 agonist and capable of eliciting a strong immune responses. Control cells were considered those exposed to culture medium alone (BEGM). A 0.4% trypan blue (Sigma, St. Louis, MO) cell survival assay was used to ensure the stimulant exposures were not cytotoxic. In all wells, less than 20% of cells were stained blue indicating greater than 80% survival of the cells. Following the LPS exposures, the media was removed from each well.
# Cells were exposed to 23 hours of stimulation with LPS (0.05 mg/mL) with or without concomitant P-gp inhibition by PSC 833(8 micM), which was applied to cells 1 hour prior to LPS treatment. Control wells were considered those exposed to culture medium alone (BEGM). A 0.4% trypan blue (Sigma, St. Louis, MO) cell survival assay was used to ensure the stimulant and inhibitor exposures were not cytotoxic. In all wells less than 20% of cells were stained blue indicating greater than 80% survival. Following the LPS and PSC 833 exposures, the media was removed from each well. Cytokine concentrations for IL-6, IL-8, GM-CSF, and TSLP in each well were determined by ELISA according to the manufacturer guidelines (eBioscience, San Diego, CA). […]
# GM-CSF secretion = GM-CSF secretion in LPS stimulated CRSwNP primary sinonasal epithelial cells with dexamethasone; type: cell-based, human; settings: LPS 0.0125 mg/ml
# From the text: The increase in intracellular corticosteroid concentration potentiates its anti-inflammatory effect. Primary sinonasal epithelial cell culture was derived from patients with chronic sinusitis with nasal polyps (CRSwNP) and stimulated with LPS, a component of gram negative bacterial cell walls.
# HSNECC cells = type: cell-based; settings: human, 24 h, 8 µM
# Description: as §1
# P-gp [3] = type: cell-based, human; settings: PNECCs, mean
# Description: Following removal of media from each well, the cytoplasmic and membranous protein fractions were isolated using a two-step extraction assay (DualXtract, Bulldog Bio, Inc., Portsmouth, NH). Membrane bound P-gp was quantified by subjecting the membranous fraction to ELISA (USCN Life Sciences Inc., Wuhan, P.R. China) and normalized to the cytoplasmic protein concentration.
# In some wells, a specific P-gp inhibitor (PSC 833 8 micM, Tocris Bioscience, Bristol, UK) was applied to the cells 1 hour prior to LPS stimulation. Following the LPS and PSC 833 treatment, the media was removed from each well, and ELISA was performed to quantify membrane bound P-gp.
# P-gp [4] = molecular target: T1, P-gp; assay: Intracellular dexamethasone retention in primary sinonasal epithelial cells (CRSwNP); type: cell-based; settings: LPS stimulated, three patients
# From the text: These cultured primary sinonasal epithelial cells were stimulated with lipopolysaccharide (LPS) in the presence or absence of the P-gp inhibitor PSC 833.
# [5] = test system: IL-6, IL-8, GM-CSF, TSLP secretion in PNECCs; assay: LPS stimulated cytokine secretion (ELISA) in PNECCs; type: cell-based, human; settings: mean; for normalized IL-6 secretion: normalized to total media protein
# Description: Cells were exposed to 23 hours of stimulation with LPS (0.05 mg/mL) with or without concomitant P-gp inhibition by PSC 833(8 micM), which was applied to cells 1 hour prior to LPS treatment. Control wells were considered those exposed to culture medium alone (BEGM). A 0.4% trypan blue (Sigma, St. Louis, MO) cell survival assay was used to ensure the stimulant and inhibitor exposures were not cytotoxic. In all wells less than 20% of cells were stained blue indicating greater than 80% survival. Following the LPS and PSC 833 exposures, the media was removed from each well. Cytokine concentrations for IL-6, IL-8, GM-CSF, and TSLP in each well were determined by ELISA according to the manufacturer guidelines (eBioscience, San Diego, CA). Cytokine concentrations were normalized to total media protein concentrations using a Pierce BCA Protein Assay Kit.
# P-gp [6] = molecular target: T1, P-gp; assay: Steroid release from nasal polyp explants after dexamethasone incubation; type: cell-based; settings: polyp explants after 30-minute dexamethasone 0.05 mg/mL; PSC 833 (804) vs media alone
# Description: The ability of nasal polyp explants to retain steroid after a 30-minute incubation in dexamethasone (0.05 mg/mL, n=6) was examined. Following incubation, polyp explants were placed either in media alone or in media containing the P-gp inhibitor PSC 833 (804) and the amount of steroid released by the explants into the surrounding media was measured.
# P-gp [7] = assay: ELISA of membrane-bound P-glycoprotein in CRSwNP HSNECCs; type: cell-based, human; settings: LPS 0.05 mg/mL, ng/mL normalized to total cytoplasmic protein (mcg/mL) per FIG. 17B
# Description: Human sinonasal nasal epithelial cell cultures (HSNECCs) from five patients were grown from nasal polyps as previously described. Briefly, polyp samples were washed and digested in Pronase for 90 minutes at 37° C. Cell suspensions were separated from particulate matter by centrifugation and resuspended in BEGM. Cells were plated for 2 hours on standard tissue culture plates to remove contaminating fibroblasts. Cells were then expanded for 3-5 days on collagen coated 75 cm^2 dishes (Corning Life Sciences, Corning, NY). Once confluent, the HSNECCs were trypsinized and re-seeded evenly on human collagen type IV-coated 6-well and 96-well tissue culture plates. 6-well cultures were grown to 80% confluence in BEGM prior to cytokine and protein analysis. 96-well plates intended for the dose dependent inhibition assay were grown to 100% confluence. Cells intended for immunohistochemistry were grown on tissue culture treated coverslips.
# Membrane-bound P-glycoprotein in HSNECCs was quantified as follows. After removal of media from each well, the cytoplasmic and membranous protein fractions were isolated using a two-step extraction assay (DualXtract, Bulldog Bio, Inc., Portsmouth, NH).
# P-gp [8] = assay: Q-FIHC for membranous P-gp expression in PNECCs; type: cell-based, human; settings: LPS 0.05 mg/mL, 23 h
# Description: Exclusion criteria included the following: diagnosis of chronic sinusitis, use of oral steroids or immunotherapy within the preceding 4 weeks, aspirin sensitivity, ciliary dysfunction, autoimmune disease, cystic fibrosis, or any known immunodeficiency. All tissues were derived from schneiderian mucosa within the middle meatus.
# Mucosal biopsies were washed and digested in Pronase for 90 minutes at 37° C. Cell suspensions were separated from particulate matter by centrifugation and resuspended in basal epithelial growth medium (BEGM) (Lonza, Basel, Switzerland). Cells were plated for 2 hours on standard tissue culture plates to remove contaminating fibroblasts. Cells were then expanded for 3-5 days on collagen coated 75 cm 2 dishes (Corning Life Sciences, Corning, NY). Once confluent, the PNECCs were trypsinized and re-seeded evenly on human collagen type IV-coated 6-well tissue culture plates. Cultures were grown to 80% confluence in BEGM prior to testing. PNECC cells intended for immunohistochemistry were grown on tissue culture treated coverslips placed within the wells. […]
# Q-FIHC for membranous P-gp expression was performed using previously described techniques (Kirkeby et al., 2005). […] The mean corrected luminosity was considered the staining intensity (calculated using Image J v1.45s) divided by the total number of pixels subtended by the cells.
# [9] = LPS 0.05 mg/mL + PSC 833 8 μM, no inhibition
# [10] = LPS 0.05 mg/mL + PSC 833 8 micM
# T1 sequence (P08183 whole entry): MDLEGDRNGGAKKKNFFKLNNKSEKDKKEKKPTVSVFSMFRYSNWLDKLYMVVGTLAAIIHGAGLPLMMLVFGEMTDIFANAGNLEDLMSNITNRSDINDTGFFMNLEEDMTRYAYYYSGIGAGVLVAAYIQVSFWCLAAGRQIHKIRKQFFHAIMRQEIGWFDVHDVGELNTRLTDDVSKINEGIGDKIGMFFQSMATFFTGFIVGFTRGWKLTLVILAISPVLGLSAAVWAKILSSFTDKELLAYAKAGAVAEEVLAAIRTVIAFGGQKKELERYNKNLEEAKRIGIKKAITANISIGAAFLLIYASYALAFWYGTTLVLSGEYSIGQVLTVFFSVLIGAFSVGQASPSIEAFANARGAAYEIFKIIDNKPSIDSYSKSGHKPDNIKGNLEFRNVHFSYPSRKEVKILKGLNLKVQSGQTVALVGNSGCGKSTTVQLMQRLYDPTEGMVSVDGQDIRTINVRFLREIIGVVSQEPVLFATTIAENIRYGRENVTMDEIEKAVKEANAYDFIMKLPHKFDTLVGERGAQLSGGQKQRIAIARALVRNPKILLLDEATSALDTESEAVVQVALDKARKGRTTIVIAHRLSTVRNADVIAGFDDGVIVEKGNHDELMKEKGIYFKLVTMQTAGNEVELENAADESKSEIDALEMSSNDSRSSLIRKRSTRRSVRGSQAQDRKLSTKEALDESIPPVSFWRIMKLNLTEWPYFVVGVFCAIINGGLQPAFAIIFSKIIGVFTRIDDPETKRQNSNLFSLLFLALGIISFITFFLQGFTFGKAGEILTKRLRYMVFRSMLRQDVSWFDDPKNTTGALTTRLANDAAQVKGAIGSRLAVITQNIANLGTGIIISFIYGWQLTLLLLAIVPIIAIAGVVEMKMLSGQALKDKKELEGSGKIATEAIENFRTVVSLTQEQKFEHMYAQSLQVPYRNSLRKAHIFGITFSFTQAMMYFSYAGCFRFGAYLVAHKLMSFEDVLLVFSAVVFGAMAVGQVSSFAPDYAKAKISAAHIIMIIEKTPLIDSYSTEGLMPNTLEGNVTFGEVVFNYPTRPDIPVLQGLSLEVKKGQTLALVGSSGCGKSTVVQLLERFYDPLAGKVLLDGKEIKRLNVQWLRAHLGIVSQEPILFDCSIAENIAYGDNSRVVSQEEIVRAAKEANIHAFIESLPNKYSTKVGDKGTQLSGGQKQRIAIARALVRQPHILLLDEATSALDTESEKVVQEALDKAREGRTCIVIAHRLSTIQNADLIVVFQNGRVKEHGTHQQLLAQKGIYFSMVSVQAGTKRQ
compound,measurement,setting,value
"CCOC/C=C/c1ccc(-c2nc(-c3ccc(NC(C)C)cc3)c(-c3ccc(NC(C)C)cc3)[nH]2)cc1 [OC144093, 4-[2-[4-[(E)-3-ethoxyprop-1-enyl]phenyl]-4-[4-(propan-2-ylamino)phenyl]-1H-imidazol-5-yl]-N-propan-2-ylaniline]",potency relative to the first and second-generation P-gp inhibitors,P-gp [1],about 10 fold
"C/C=C/C[C@@H](C)C(=O)[C@H]1C(=O)N[C@@H](C(C)C)C(=O)N(C)CC(=O)N(C)[C@@H](CC(C)C)C(=O)N[C@@H](C(C)C)C(=O)N(C)[C@@H](CC(C)C)C(=O)N[C@@H](C)C(=O)N[C@H](C)C(=O)N(C)[C@@H](CC(C)C)C(=O)N(C)[C@@H](CC(C)C)C(=O)N(C)[C@@H](C(C)C)C(=O)N1C [PSC 833, 6-[(2S,4R,6E)-4-methyl-2-(methylamino)-3-oxo-6-octenoic acid]-7-L-valine-cyclosporin A]",secretion of GM-CSF normalized to total media protein,[2]; LPS 0.05 mg/mL + PSC 833 8 μM,8.47+/−3.28 pcg/mL normalized to total med
same,secretion of IL-6 normalized to total media protein,[2]; LPS 0.05 mg/mL + PSC 833 8 μM,39.94+/−31.07 pcg/mL normalized to total med
same,secretion of IL-8 normalized to total media protein,[2]; [9],1608.41+/−471.94 pcg/mL normalized to total med
same,secretion of IL-25 normalized to total media protein,[2]; [9],0.073+/−0.038 pcg/mL normalized to total med
same,cell survival (trypan blue),"PNECCs; human, 24 h, 8 µM",greater than 80%
same,GM-CSF secretion compared to dexamethasone treatment alone,GM-CSF secretion; PSC833 (804) + dexamethasone 0.1 mg/mL,reduced GM-CSF secretion
same,cell survival (trypan blue),HSNECC cells,greater than 80%
same,"normalized membranous P-gp (ELISA, normalized to cytoplasmic protein)","P-gp [3]; LPS + PSC 833 8 micM applied 1 hour prior to LPS, not significant vs LPS alone (p=0.115)",70.40
same,intracellular dexamethasone retention relative to dexamethasone alone,P-gp [4],increased intracellular dexamethasone retention
same,normalized GM-CSF secretion,[5]; [10],7.64
same,normalized TSLP secretion,[5]; [10],5.13
same,normalized IL-8 secretion,"[5]; LPS 0.05 mg/mL + PSC 833 8 micM, reduction not significant (p=0.313)",801.09
same,normalized IL-6 secretion,[5]; [10],37.60
same,steroid release by explants into surrounding media,P-gp [6],statistically significant decrease
"COc1cc2c(cc1OC)CN(CCc1ccc(NC(=O)c3cc(OC)c(OC)cc3NC(=O)c3cnc4ccccc4c3)cc1)CC2 [XR9576, N-[2-[[4-[2-(6,7-Dimethoxy-3,4-dihydro-1H-isoquinolin-2-yl)ethyl]phenyl]carbamoyl]-4,5-dimethoxyphenyl]quinoline-3-carboxamide]",potency relative to the first and second-generation P-gp inhibitors,P-gp [1],about 10 fold
lipopolysaccharide [LPS],mean normalized concentration of membranous P-gp (ELISA),P-gp [7],22.23+/−10.22
same,secretion of GM-CSF normalized to total media protein,"[2]; LPS 0.05 mg/mL alone, 23 hours",45.21+/−41.39 pcg/mL normalized to total med
same,secretion of IL-6 normalized to total media protein,"[2]; LPS 0.05 mg/mL alone, 23 hours",63.16+/−36.37 pcg/mL normalized to total med
same,secretion of IL-8 normalized to total media protein,"[2]; LPS 0.05 mg/mL alone, 23 hours",1041.17+/−550.52 pcg/mL normalized to total med
same,secretion of IL-25 normalized to total media protein,"[2]; LPS 0.05 mg/mL alone, 23 hours",0.075+/−0.039 pcg/mL normalized to total med
same,cell survival (trypan blue),"PNECCs; PNECCs, LPS 0.05 mg/mL, 23 hours",greater than 80%
same,GM-CSF secretion versus unstimulated control cells,GM-CSF secretion,increased GM-CSF secretion
same,"normalized membranous P-gp (ELISA, normalized to cytoplasmic protein)","P-gp [3]; LPS 0.05 mg/mL alone, 23 h",19.63
same,mean corrected luminosity of membranous P-gp (Q-FIHC),P-gp [8],9.64
same,normalized GM-CSF secretion,"[5]; LPS 0.05 mg/mL alone, 23 h",39.92
same,normalized IL-8 secretion,"[5]; LPS 0.05 mg/mL alone, 23 h",912.91
same,normalized TSLP secretion,"[5]; LPS 0.05 mg/mL alone, 23 h",6.65
same,normalized IL-6 secretion,"[5]; LPS 0.05 mg/mL alone, 23 h",79.67
